Assay results published in patent publication US6692927B2, “Bax degradation involvement in tumor survival and progression” (University of South Florida, priority 2000, dated 2004).
Where a SMILES comes first, the peptide text is derived from it. [ ]: non-standard residue; d: D form. The star is where a group is joined. Nva = CCC[C@H](N)C(=O)O; Cbz = O=C(OCc1ccccc1)*

Experiments:
[1] = test system: normal human breast cells MCF-10A; assay: cellular detachment of normal breast cells; type: cell-based; details: 48 hours or even 72 hours
Protocol: Proteasome inhibitors selectively induce apoptosis in human breast cancer, but not normal, cells. […] Cells of both human breast cancer lines became detached in a lactacystin-concentration-dependent manner (FIG. 3). No detachment was induced in the normal human breast cells MCF-10A after treatment with lactacystin for 48 hours (FIG. 3) or even 72 hours. Proteasome inhibition-induced detachment of breast cancer cells is due to apoptosis (An et al., in press).

[2] = test system: SV40-transformed (VA-13) cells; assay: PARP cleavage, cytochrome c release and Bax accumulation in SV40-transformed fibroblasts; type: cell-based, human
Description: (§1) Proteasome inhibitors activate Bax- and cytochrome c-dependent apoptosis pathway preferentially in transformed human fibroblasts. Normal human fibroblasts are more resistant to proteasome inhibitor-induced apoptosis than transformed and cancer cells (An et al., in press). This is probably due to inability of the normal cells to accumulate Bax protein in response to proteasome inhibition, and consequently failure to release cytochrome c. To test this hypothesis, both SV40-transformed and normal WI-38 cells were treated with 50 microM LLnV for up to 24 hours, followed by measurement of PARP cleavage, cytochrome c release and Bax accumulation. […] In contrast, only after 24 hours treatment, low levels of p85/PARP fragment and cytosolic cytochrome c were detected in normal WI-38 cells (FIGS. 1, A, B, lanes 8-14). […] The levels of Bax/p21 were increased at as early as 4 hours and remained high afterwards. […] The level of another band of ˜47 kDa increased at 4 hours, further increased between 6 and 12 hours, and then decreased (FIG. 1C). The p70 and p47 bands can contain ubiquitinated forms of Bax since similar polypeptides were detected by antibodies to both Bax and ubiquitin (Li et al., 1999). […] Therefore, although unable to activate the Bax- and cytochrome c-dependent apoptotic pathway in response to a low concentration of a proteasome inhibitor, normal cells are capable of undergoing Bax- and cytochrome c-independent apoptosis in response to a proteasome inhibitor at higher concentrations.
(§2) SV40-transformed (VA-13) and normal WI-38 cells were treated with 50 microM LLnV or DMSO (letter D) for up to 24 hours, followed by measurement of PARP cleavage (A), cytochrome c release (B) and Bax accumulation (C; also see FIG. 2). Panel D, exponentially grown VA-13 cells were pretreated with 50 microM LLnV or DMSO for 1 hour, washed with methionine-free medium, and then incubated for 30 minutes in methionine-free medium plus 50 microM LLnV (or DMSO). This was followed by replacing fresh methionine-free medium containing 150 microCi/ml of [^35S]-methionine, 10% dialyzed FBS and 50 microM LLnV (or DMSO). Cells were further incubated for 6 hours, followed by preparation of [^35S]-labeled protein lysates and Bax immunoprecipitates (6A7, PharMingen). The labeled Bax bands are indicated. […] Bax-alpha subcloned into pcDNA3 was used for coupled in vitro transcription/translation in the presence of [^35S]methionine. For Bax cleavage assay, the whole cell extracts were prepared. The [^35S]-labeled Bax (0.7 microl) was incubated with 50 microg protein in assay buffer (containing 50 microM LLM and no Ca^2+) for 4 hours at 37° C. Following incubation, the samples were subjected to SDS gel electrophoresis and autoradiography.

normal WI-38 cells = assay: PARP cleavage, cytochrome c release, Bax and p21 in normal fibroblasts; type: cell-based, human; details: 50 microM LLnV
Description: as §1, §2

SMILES | cellular detachment [1] | earliest time of increased Bax/p21 levels ([2]; 50 microM LLnV) | Bax levels ([2]; 50 microM LLnV, prior to release of cytochrome c) | time at which cleavage of PARP and release of cytochrome c were detected ([2]; 50 microM LLnV, up to 24 hours) | Bax accumulation and apoptosis (PARP cleavage) ([2]; LLnV treatment (FIG. 4B)) | time at which low levels of p85/PARP fragment and cytosolic cytochrome c were detected (normal WI-38 cells)
CC(=O)N[C@@H](CSC(=O)[C@]1([C@@H](O)C(C)C)NC(=O)[C@H](C)[C@@H]1O)C(=O)O [lactacystin] | No detachment |  |  |  |  | 
CCC[C@@H](C=O)NC(=O)[C@H](CC(C)C)NC(=O)[C@H](CC(C)C)NC(=O)OCc1ccccc1 [LLnV] (Cbz-Leu-Leu-[Nva]-aldehyde) |  | 4 h | dramatically increased | 8 h | rapidly accumulated Bax protein and subsequently induced apoptosis | 24 h
